Holding throughout (assay): DTP human tumour cell line panel, 48 h
The subject of assay [1] is 786-0.
For assay [2], the system named is A498.
The subject of assay [3] is A549.
The subject of assay [4] is HCC 2998.
The subject of assay [5] is HCT-15.
For assay [6], the system named is HOP-92.
The subject of assay [7] is MDA-MB-435.
Assay [8] relates to NCI/ADR-RES.
The subject of assay [9] is OVCAR-8.
In assay [10] the test system is PC-3.
Assay [11] deals with RPMI-8226.
The test system of assay [12] is SF-268.
In assay [13] the test system is SK-MEL-2.
Assay [14] has as its system SK-OV-3.
Assay [15] deals with SN12C.
Assay [16] has as its system SR.
Assay [17] deals with TK-10.
Assay [18] has as its system U-251.
Assay [19] concerns UO-31.
In assay [20] the test system is SNB-75.

The structures appear in SMILES notation.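 96-well plates; 48 h exposure; 5 concentrations. Endpoints by linear interpolation between flanking doses. Not reached: highest tested concentration assigned. Abbreviation: GI50, concentration required for 50% inhibition of growth.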 Active and inactive are the calls of the source. No stated cut-off is given here; in the data, active = GI50 up to about 1.1 µM and inactive = higher.

Eleven compounds from ChEMBL document CHEMBL1201862, “PubChem BioAssay data set” (2004) can be followed below.

In general, GI50 refers to the concentration at which growth is held to half of that of the control. For the compound `Cn1c(=O)c2nc3nnc(C#N)c(N)n3c2n(C)c1=O`, the GI50 in [1] was > 100 µM (inactive); in assay [2] it was 51.4 µM (inactive); in assay [3], > 100 µM (inactive); in assay [4] it was > 100 µM (inactive); in [5] it was over 100 µM; in assay [6], 31.8 µM (inactive). Further, the GI50 in [7], in assay [8], in [9], in assay [10], in [11] and in assay [12] was > 100 µM (inactive) in each case. The GI50 in [13], in [14], in assay [15], in assay [16], in [17] and in assay [18] was > 100 µM (inactive) throughout. The GI50 in [19] was 50.6 µM (inactive).

`Cn1c(=O)c2c(nc(NCCNc3nc4c(c(=O)n(C)c(=O)n4C)n3C)n2C)n(C)c1=O`: the GI50 in [1] was > 100 µM (inactive); in assay [2], > 100 µM (inactive); in assay [3], > 100 µM (inactive); in assay [4], > 100 µM (inactive); in [5] it was over 100 µM; in [6], > 100 µM (inactive). Further, the GI50 in assay [7], in assay [8], in assay [9], in [10], in assay [12] and in assay [13] was > 100 µM (inactive) throughout. Besides, the GI50 in [15], in assay [20], in [16], in assay [17], in assay [18] and in [19] was > 100 µM (inactive) each time.

As to `O=C(O)c1cc(-c2ccc3c(O)ccc(O)c3c2)ccc1O`, the GI50 is 16.6 µM (inactive) in assay [1]; 17.4 µM (inactive) in assay [2]; 33.5 µM (inactive) in [3]; 16.4 µM (inactive) in [4]; 16.9 µM in assay [5]; 17.5 µM (inactive) in assay [7]. Moreover, the GI50 in [8] is 28.1 µM (inactive); in assay [9] it was 23.7 µM (inactive); in assay [10], 12.9 µM (inactive); in assay [11] it was 4.78 µM (inactive); in assay [12], 29.1 µM (inactive); in assay [13], 17.2 µM (inactive). For the same compound, the GI50 in assay [14] was > 10 µM (inactive); in assay [15], 15.7 µM (inactive); in [20], 17 µM (inactive); in [16] it was 3.51 µM (inactive); in assay [17], 20.3 µM (inactive); in [18] it was 21.4 µM (inactive). Moreover, the GI50 in assay [19] is 17.4 µM (inactive).

With `Cn1cc(NC(=O)c2cc(NC(=O)CNC(=N)N)cn2C)cc1C(=O)NCCC(=N)N` [NETROPSIN CHLORIDE], the GI50 in assay [1] is > 100 µM (inactive); in assay [2] it was > 100 µM (inactive); in [3], > 100 µM (inactive); in [4], > 100 µM (inactive); in assay [5], over 100 µM; in [6] it was > 100 µM (inactive). For the same compound, the GI50 in assay [7], in assay [8], in assay [9], in assay [10], in [11] and in [12] was > 100 µM (inactive) throughout. Also, the GI50 in assay [13], in assay [14], in assay [15], in assay [16], in assay [17] and in assay [18] was > 100 µM (inactive) in each case. In addition, in [19], the GI50 was > 100 µM (inactive).

As for `CC(=O)N1c2ccccc2C2=NN(C)C(=N)SC21` (stereo not drawn), the GI50 in [1] is > 100 µM (inactive); in assay [2], 66.7 µM (inactive); in [3], > 100 µM (inactive); in assay [4], > 100 µM (inactive); in assay [5], over 100 µM; in [7] it was 89.3 µM (inactive). Moreover, the GI50 in assay [8], in [9], in assay [10], in assay [11], in assay [12] and in assay [13] was > 100 µM (inactive) throughout. Moreover, the GI50 in [15] was > 100 µM (inactive); in assay [20], 56 µM (inactive); in assay [16], > 100 µM (inactive); in assay [17], > 100 µM (inactive); in assay [18] it was > 100 µM (inactive); in assay [19] it was 28 µM (inactive).

Regarding `Cc1cn(C2OC(CO[Si](C)(C)C(C)(C)C)/C(=C\C#N)C2O[Si](C)(C)C(C)(C)C)c(=O)[nH]c1=O` (stereo not drawn), the GI50 was 58.1 µM (inactive) in [1]; > 100 µM (inactive) in assay [2]; 41.6 µM (inactive) in [3]; 14.4 µM in assay [5]; > 100 µM (inactive) in [6]; 56.1 µM (inactive) in assay [7]. For the same compound, the GI50 in assay [8] was > 100 µM (inactive); in [10] it was 3.83 µM (inactive); in assay [11], > 100 µM (inactive); in [12], 92.5 µM (inactive); in assay [13] it was 8.73 µM (inactive); in assay [14] it was > 100 µM (inactive). Further, the GI50 in [15] was 64.6 µM (inactive); in assay [20], 56.9 µM (inactive); in assay [16], > 100 µM (inactive); in assay [17], > 100 µM (inactive); in assay [18], 38.4 µM (inactive); in assay [19], > 100 µM (inactive).

`Nc1cccc(/C=C/C(=O)N2CCN(CCOC(c3ccccc3)c3ccccc3)CC2)c1`: the GI50 was 16.7 µM (inactive) in assay [1]; 17.5 µM (inactive) in [2]; 16.6 µM (inactive) in assay [3]; 16.3 µM in [5]; 12.9 µM (inactive) in assay [6]; 16.3 µM (inactive) in assay [7]. Further, the GI50 is 17.3 µM (inactive) in [8]; 17.8 µM (inactive) in [9]; 14.7 µM (inactive) in [10]; 10.5 µM (inactive) in assay [11]; 17.4 µM (inactive) in assay [12]; 16.2 µM (inactive) in assay [13]. Besides, the GI50 in [14] was 16.5 µM (inactive); in assay [15] it was 17.5 µM (inactive); in assay [20] it was 13.1 µM (inactive); in assay [16] it was 14.4 µM (inactive); in assay [17], 15 µM (inactive); in [18] it was 15.8 µM (inactive). In addition, the GI50 in assay [19] was 16.9 µM (inactive).

In the case of `CCCCCCc1cc2cc(C(=O)Nc3cccc(F)c3)c(=N)oc2cc1O`, the GI50 in [1] is 3.28 µM (inactive); in assay [2], 3.02 µM (inactive); in [3] it was 3.27 µM (inactive); in assay [4] it was 3.19 µM (inactive); in assay [5] it was 2.31 µM; in [7], 2.4 µM (inactive). Moreover, the GI50 was 2.35 µM (inactive) in assay [8]; 1.59 µM (inactive) in assay [9]; 3.21 µM (inactive) in [10]; 1.62 µM (inactive) in assay [11]; 2.32 µM (inactive) in assay [12]; 2.16 µM (inactive) in assay [13]. In addition, the GI50 in assay [14] is 3.37 µM (inactive); in assay [16], 2.17 µM (inactive); in assay [18] it was 1.97 µM (inactive); in assay [19], 2.73 µM (inactive).

For `COC(=O)[C@H]1[C@@H](C(C)C)O[C@@H](C(C)C)O[C@H]1C(F)(F)F`, the GI50 is > 100 µM (inactive) in [1]; > 100 µM (inactive) in assay [2]; > 100 µM (inactive) in assay [3]; > 100 µM (inactive) in assay [4]; over 100 µM in assay [5]; 44.6 µM (inactive) in assay [6]. Further, the GI50 in [7], in assay [8], in [9], in [10], in assay [11] and in assay [12] was > 100 µM (inactive) throughout. The GI50 in assay [14], in assay [15], in [20], in assay [16], in assay [17] and in assay [18] was > 100 µM (inactive) throughout. For the same compound, the GI50 in assay [19] is > 100 µM (inactive).

On to `Cc1ccc(C2SC(=N)Nc3c2c(C)nn3C(=O)c2ccccc2O)cc1` (stereo not drawn), for which the GI50 in [1] is > 10 µM (inactive); in [2], 3.59 µM (inactive); in assay [3], 3.16 µM (inactive); in assay [5], over 10 µM; in [6], 0.475 µM (active); in [7] it was 3.78 µM (inactive). Besides, the GI50 in assay [8] was > 10 µM (inactive); in [9] it was > 10 µM (inactive); in assay [10], > 10 µM (inactive); in assay [11], > 10 µM (inactive); in assay [12], 9.44 µM (inactive); in assay [13], 6.31 µM (inactive). The GI50 is 3.3 µM (inactive) in assay [14]; > 10 µM (inactive) in assay [15]; 2.54 µM (inactive) in assay [20]; > 10 µM (inactive) in [16]; > 10 µM (inactive) in assay [17]; 5.38 µM (inactive) in assay [18]. In assay [19], the GI50 is 6.87 µM (inactive).

`O=C1CN(/N=C/c2ccc(-c3ccc(F)cc3)o2)C(=O)N1`: the GI50 is > 100 µM (inactive) in assay [1]; 25.2 µM (inactive) in assay [2]; 52.2 µM (inactive) in [3]; 80.9 µM (inactive) in assay [4]; 39 µM in [5]; 0.394 µM (active) in assay [6]. The GI50 is 18.5 µM (inactive) in assay [7]; 25.9 µM (inactive) in [8]; > 100 µM (inactive) in assay [9]; > 100 µM (inactive) in assay [10]; 28 µM (inactive) in assay [11]; > 100 µM (inactive) in [12]. Moreover, the GI50 in assay [13] was 34.6 µM (inactive); in assay [14], > 100 µM (inactive); in [15], 91.2 µM (inactive); in assay [16] it was 24 µM (inactive); in assay [17], 69.2 µM (inactive); in assay [18], 89.3 µM (inactive). For the same compound, in assay [19], the GI50 was 75.2 µM (inactive).
